Target: T1, human TLR7 (Homo sapiens, UniProt Q9NYK1)
T1 construct: host or cells: HEK-Blue hTLR7 (HEK293-derived reporter cells)
T1 sequence (Q9NYK1 27-1049): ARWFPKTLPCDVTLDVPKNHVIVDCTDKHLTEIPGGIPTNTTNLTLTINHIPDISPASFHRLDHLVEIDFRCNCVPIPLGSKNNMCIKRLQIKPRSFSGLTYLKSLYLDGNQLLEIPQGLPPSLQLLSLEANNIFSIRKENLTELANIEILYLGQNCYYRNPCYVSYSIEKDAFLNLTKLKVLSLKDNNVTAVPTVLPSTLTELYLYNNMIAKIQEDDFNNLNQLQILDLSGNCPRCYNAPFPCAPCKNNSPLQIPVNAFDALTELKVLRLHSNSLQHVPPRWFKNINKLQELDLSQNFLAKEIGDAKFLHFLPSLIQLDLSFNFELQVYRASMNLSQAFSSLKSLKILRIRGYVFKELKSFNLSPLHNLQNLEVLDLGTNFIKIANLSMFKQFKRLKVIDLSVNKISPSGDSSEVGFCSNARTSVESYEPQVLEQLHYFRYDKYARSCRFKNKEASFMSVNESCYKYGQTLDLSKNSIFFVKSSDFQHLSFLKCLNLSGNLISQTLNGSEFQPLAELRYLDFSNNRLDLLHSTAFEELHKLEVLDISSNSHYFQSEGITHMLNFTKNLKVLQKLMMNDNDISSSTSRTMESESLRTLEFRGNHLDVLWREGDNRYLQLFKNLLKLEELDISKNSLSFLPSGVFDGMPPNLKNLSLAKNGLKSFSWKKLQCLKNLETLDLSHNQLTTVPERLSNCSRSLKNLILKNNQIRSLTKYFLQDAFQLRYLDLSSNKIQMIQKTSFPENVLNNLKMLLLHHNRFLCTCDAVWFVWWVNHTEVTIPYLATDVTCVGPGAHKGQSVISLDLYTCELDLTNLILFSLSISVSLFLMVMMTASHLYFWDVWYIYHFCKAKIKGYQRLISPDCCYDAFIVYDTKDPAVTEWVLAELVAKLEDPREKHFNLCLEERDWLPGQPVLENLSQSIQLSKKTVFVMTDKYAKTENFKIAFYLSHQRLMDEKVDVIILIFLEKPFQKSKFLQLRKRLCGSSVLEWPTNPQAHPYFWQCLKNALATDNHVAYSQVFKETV
Test: Agonistic activity on human TLR7 in HEK-Blue hTLR7 cell line (QUANTI-Blue reporter)
Format: cell-based
Conditions: HEK-Blue hTLR7 cells, 16-22 h incubation, absorption at 630 nm; read-out: EC50 value of the agonistic effect on human TLR7
Procedure: The TLR7 agonistic activity of the compounds of the invention in HEK-Blue™ hTLR7 cell line with stable expression of human TLR7 were assayed using the following method: • 1. Weighed the test compounds and prepared stock solutions with DMSO (Sigma) at a concentration of 10 mM. […] The highest concentration was 1 mM. • 2. The test compounds and DMSO control were diluted 10-fold in DPBS buffer (Gibco) and then added to a 96-well cell culture plate (Corning) at a volume of 20 μL/well. • 3. HEK-Blue™ hTLR7 cells (Invivogen) were digested with cell separation solution (Gibco), and counted (TC-20 cell counter, Bio-rad). Cells were diluted to 4.4E5/ml using DMEM cell medium (Gibco). Added the cells to a 96-well cell culture plate at a volume of 180 μL/well. The cells were incubated for 16-22 h at 37° C. in a 5% CO2 incubator. • 4. Prepared QUANTI-Blue detection reagent (Invivogen), and added into a new 96-well plate at a volume of 180 μL/well. Twenty μL of cell culture supernatant was transferred from the cell culture plate and added to the 96-well plate and incubated at 37° C. for 1-3 hours. • 5. Neo2 multifunctional microplate reader (Bio-Tek) was used to measure the optical absorption at 630 nm, and the EC50 was calculated by GraphPad Prism.
The agonistic effect of the compounds of the invention on human TLR7 can be determined by the above experiments, and the measured EC50 value is shown in Table 1.

Structure (SMILES)	EC50
Nc1nc2nc3c1[nH]c(=O)n3Cc1cc(c3c(c1)CC(C(=O)O)CO3)CCCCCO2 (stereo not shown) [Compound I-19]	165 nM
Nc1nc2nc3c1[nH]c(=O)n3Cc1cc(c3c(c1)CCC(C(=O)O)O3)CC=CCCO2 (stereo not shown) [Compound I-14]	38 nM
Nc1nc2nc3c1[nH]c(=O)n3Cc1cc(c3c(c1)CN(CCO)CC3)CCCCCO2 [Compound I-38]	47 nM
Nc1nc2nc3c1[nH]c(=O)n3Cc1cc(c3c(c1)CN(Cc1ccncc1)CC3)CCCCCO2 [Compound I-47]	165 nM
CC(C)N1CCc2c3cc(cc2C1)Cn1c(=O)[nH]c2c(N)nc(nc21)S(=O)(=O)CCCCC3 [Compound I-63]	31 nM
CC1(C(=O)O)Cc2cc3cc(c2C1)C/C=C\CCOc1nc(N)c2[nH]c(=O)n(c2n1)C3 (stereo not shown) [Compound I-21]	42 nM
Nc1nc2nc3c1[nH]c(=O)n3Cc1cc(cc3c1CNCC3)OCCCCO2 [Compound I-66]	393 nM
Nc1nc2nc3c1[nH]c(=O)n3Cc1cc(c3c(c1)CNCC3)CCCCCCO2 [Compound I-28]	111 nM
Nc1nc2nc3c1[nH]c(=O)n3Cc1cc(cc3c1OCC3)CCCCCO2 [Compound I-67]	316 nM
Cc1cnc(N2CCc3c4cc(cc3C2)Cn2c(=O)[nH]c3c(N)nc(nc32)OCCCCC4)nc1 [Compound I-46]	980 nM
COC(=O)CN1CCc2c3cc(cc2C1)Cn1c(=O)[nH]c2c(N)nc(nc21)OCCCCC3 [Compound I-49]	73 nM
Nc1nc2nc3c1[nH]c(=O)n3Cc1cc3c(c(c1)OC[C@@H]1C[C@H]1CO2)CCNC3 [Compound I-32]	31 nM
Nc1nc2nc3c1[nH]c(=O)n3Cc1cc3c(c(c1)OC[C@@H]1CCC[C@H]1CO2)CCNC3 [Compound I-33]	140 nM
Nc1nc2nc3c1[nH]c(=O)n3Cc1cc(c3c(c1)CCN(CC(=O)O)C3)CC=CCCO2 [Compound I-24]	84 nM
Nc1nc2nc3c1[nH]c(=O)n3Cc1cc3c(c(c1)OCCCCO2)CCNC3 [Compound I-31]	39 nM
Nc1nc2nc3c1[nH]c(=O)n3Cc1cc3c(c(c1)OCCCO2)CCNC3 [Compound I-30]	75 nM

Structure (SMILES)	EC50
CN1Cc2c3cc(cc2C1=O)Cn1c(=O)[nH]c2c(N)nc(nc21)OCCCCC3 [Compound I-5]	113 nM
CS(=O)(=O)CCN1CCc2c3cc(cc2C1)Cn1c(=O)[nH]c2c(N)nc(nc21)OCCCCC3 [Compound I-59]	87 nM
Nc1nc2nc3c1[nH]c(=O)n3Cc1cc(c3c(c1)CN(C1CCNCC1)CC3)CCCCCO2 [Compound I-40]	280 nM
Nc1nc2nc3c1[nH]c(=O)n3Cc1cc(c3c(c1)CCC(C(=O)O)O3)CCCCCO2 (stereo not shown) [Compound I-15]	228 nM
Nc1nc2nc3c1[nH]c(=O)n3Cc1cc(c3c(c1)CN(C(=O)c1ccccc1)CC3)CC=CCCO2 [Compound I-44]	38 nM
CN1CCC=CCc2cc(cc3c2CN(C(C)(C)C)C3=O)Cn2c(=O)[nH]c3c(N)nc1nc32 [Compound I-58]	1100 nM
CC(C)(CN1CCc2c3cc(cc2C1)Cn1c(=O)[nH]c2c(N)nc(nc21)OCCCCC3)C(=O)O [Compound I-27]	76 nM
Nc1nc2nc3c1[nH]c(=O)n3Cc1cc(c3c(c1)CC(C(=O)O)O3)CCCCCO2 (stereo not shown) [Compound I-17]	167 nM
Nc1nc2nc3c1[nH]c(=O)n3Cc1cc(c3c(c1)CN(CC(F)(F)F)CC3)CCCCCO2 [Compound I-39]	3150 nM
Nc1nc2nc3c1[nH]c(=O)n3Cc1cc3c(c(c1)OC[C@@H]1CC[C@H]1CO2)CCNC3 [Compound I-29]	35 nM
Nc1nc2cc3c1[nH]c(=O)n3Cc1cc(c3c(c1)CNCC3)C/C=C/CCO2 [Compound I-34]	132 nM
Nc1nc2nc3c1[nH]c(=O)n3Cc1cc(c3c(c1)CN(CC(=O)O)CC3)CCCCCO2 [Compound I-23]	79 nM
Nc1nc2nc3c1[nH]c(=O)n3Cc1cc(c3c(c1)CCN(CC(=O)O)C3)CCCCCO2 [Compound I-25]	95 nM
Nc1nc2nc3c1[nH]c(=O)n3Cc1cc(c3c(c1)CN(S(=O)(=O)c1ccccc1)CC3)CC=CCCO2 [Compound I-45]	579 nM
Nc1nc2nc3c1[nH]c(=O)n3Cc1cc(c3c(c1)CCNC3)CCCCCO2 [Compound I-13]	28 nM

Compounds with a lower EC50, results first:

EC50	Structure (SMILES)
10 nM	Nc1nc2nc3c1[nH]c(=O)n3Cc1cc(c3c(c1)C(=O)N(CC(=O)O)C3)CCCCCO2 [Compound I-3]
13 nM	Nc1nc2nc3c1[nH]c(=O)n3Cc1cc(c3c(c1)CN(C1CCC1)CC3)CCCCCS2(=O)=O [Compound I-62]
11 nM	CC(C)N1CCc2cc3cc(c2C1)OCCCCOc1nc(N)c2[nH]c(=O)n(c2n1)C3 [Compound I-64]
17 nM	Nc1nc2nc3c1[nH]c(=O)n3Cc1cc(c3c(c1)CC(C(=O)O)O3)CC=CCCO2 (stereo not shown) [Compound I-16]
3 nM	CS(=O)(=O)N1CCc2c3cc(cc2C1)Cn1c(=O)[nH]c2c(N)nc(nc21)OCCC=CC3 [Compound I-43]
8 nM	Nc1nc2nc3c1[nH]c(=O)n3Cc1cc(c3c(c1)C(=O)N(CCN1CCCC1)C3)C/C=C/CCO2 [Compound I-7]
15 nM	Nc1nc2nc3c1[nH]c(=O)n3Cc1cc(c3c(c1)CN(CC(=O)O)CC3)C/C=C/CCO2 [Compound I-22]
3 nM	Nc1nc2nc3c1[nH]c(=O)n3Cc1cc(c3c(c1)C(=O)N(CC(=O)O)C3)C/C=C\CCO2 [Compound I-1]
26 nM	Nc1nc2nc3c1[nH]c(=O)n3Cc1cc(c3c(c1)CNCC3)CCCCCO2 [Compound I-10]
2 nM	Nc1nc2nc3c1[nH]c(=O)n3Cc1cc(c3c(c1)C(=O)N(CCN1CCCC1)C3)C/C=C\CCO2 [Compound I-6]
25 nM	Nc1nc2nc3c1[nH]c(=O)n3Cc1cc(cc3c1CN(C1CCC1)CC3)OCCCCO2 [Compound I-68]
19 nM	CC(C)(C)N1Cc2c3cc(cc2C1=O)Cn1c(=O)[nH]c2c(N)nc(nc21)SCC/C=C\C3 [Compound I-52]
20 nM	CN1CCc2c3cc(cc2C1)Cn1c(=O)[nH]c2c(N)nc(nc21)OCCCCC3 [Compound I-36]
6 nM	Nc1nc2nc3c1[nH]c(=O)n3Cc1cc(c3c(c1)CCNC3)C/C=C\CCO2 [Compound I-11]
9 nM	Nc1nc2nc3c1[nH]c(=O)n3Cc1cc(c3c(c1)CNCC3)C/C=C/CCO2 [Compound I-9]
5 nM	CN1Cc2c3cc(cc2C1=O)Cn1c(=O)[nH]c2c(N)nc(nc21)OCCC=CC3 [Compound I-4]
22 nM	Nc1nc2nc3c1[nH]c(=O)n3Cc1cc(c3c(c1)CN(C1CCOCC1)CC3)CCCCCO2 [Compound I-41]
8 nM	Nc1nc2nc3c1[nH]c(=O)n3Cc1cc(c3c(c1)CCNC3)C/C=C/CCO2 [Compound I-12]
13 nM	Nc1nc2nc3c1[nH]c(=O)n3Cc1cc(c3c(c1)CNCC3)CCCCCS2(=O)=O [Compound I-61]
20 nM	Nc1nc2nc3c1[nH]c(=O)n3Cc1cc(c3c(c1)CC(C(=O)O)CO3)CC=CCCO2 (stereo not shown) [Compound I-18]
15 nM	Nc1nc2nc3c1[nH]c(=O)n3Cc1cc(c3c(c1)CNCC3)C/C=C\CCO2 [Compound I-8]
